# Data from paper PMC3433420 (PLoS ONE, 2012).
# Residues, ends and D or L forms follow the SMILES beside them.
# Legend:
# [1] = target: SYK-NC tandem SH2 domains (Homo sapiens, UniProt P43405); test: FP saturation binding assay
# [2] = target: T1, PTPN11-NC tandem SH2 domains (Homo sapiens, UniProt Q06124); test: FP saturation binding assay
# T1 sequence (Q06124 6-216 limits assumed): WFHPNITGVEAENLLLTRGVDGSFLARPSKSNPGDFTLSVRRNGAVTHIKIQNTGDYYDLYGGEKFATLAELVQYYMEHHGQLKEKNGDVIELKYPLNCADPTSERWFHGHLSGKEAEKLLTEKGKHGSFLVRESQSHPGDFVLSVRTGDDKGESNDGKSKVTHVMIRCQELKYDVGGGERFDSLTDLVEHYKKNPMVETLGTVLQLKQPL
# SH2D1A SH2 domain = target: T2, SH2D1A SH2 domain (Homo sapiens, UniProt O60880); test: FP saturation binding assay
# T2 sequence (O60880 6-104 limits assumed): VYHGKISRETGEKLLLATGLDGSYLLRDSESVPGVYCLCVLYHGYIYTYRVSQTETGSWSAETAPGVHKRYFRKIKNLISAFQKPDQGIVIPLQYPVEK
# SH2D1B SH2 domain = target: T3, SH2D1B SH2 domain (Homo sapiens, UniProt O14796); test: FP saturation binding assay
# T3 sequence (O14796 5-101 limits assumed): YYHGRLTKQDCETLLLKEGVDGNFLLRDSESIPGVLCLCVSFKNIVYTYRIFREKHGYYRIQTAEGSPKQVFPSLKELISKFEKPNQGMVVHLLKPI
# NCK2 SH2 domain = NCK2 SH2 domain (Homo sapiens, UniProt O43639); test: FP saturation binding assay
# [3] = target: PIK3R2-NC tandem SH2 domains (Homo sapiens, UniProt O00459); test: FP saturation binding assay
# SHC1-PTB domain = target: T4, SHC1-PTB domain (Homo sapiens, UniProt P29353); test: FP saturation binding assay
# T4 sequence (P29353 156-339 limits assumed): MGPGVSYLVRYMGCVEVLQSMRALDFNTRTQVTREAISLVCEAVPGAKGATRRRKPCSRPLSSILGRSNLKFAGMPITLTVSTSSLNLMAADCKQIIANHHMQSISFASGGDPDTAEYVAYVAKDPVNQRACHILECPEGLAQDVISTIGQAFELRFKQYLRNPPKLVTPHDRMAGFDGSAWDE
# [4] = target: T5, PLCG1-NC tandem SH2 domains (Homo sapiens, UniProt P19174); test: FP saturation binding assay; settings: Protein PLCG1-NC; FP saturation binding, high-confidence ErbB interactions; mean over replicate hits
# T5 construct: the tandem protein was included in our analysis with all internal amino acids linking the domains; 6X His; thioredoxin; made in house; host or cells: E. coli BL21(DE3)pLysS
# T5 sequence (P19174 550-756 limits assumed): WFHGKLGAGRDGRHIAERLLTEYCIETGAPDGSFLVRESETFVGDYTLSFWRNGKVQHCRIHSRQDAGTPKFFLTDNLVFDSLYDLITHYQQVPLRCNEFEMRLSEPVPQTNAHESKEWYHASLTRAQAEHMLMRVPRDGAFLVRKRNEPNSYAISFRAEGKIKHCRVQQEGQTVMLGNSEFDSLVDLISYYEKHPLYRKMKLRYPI
# RASA1-N SH2 domain [5] = target: T6, RASA1-N SH2 domain (Homo sapiens, UniProt P20936); test: FP saturation binding assay
# T6 sequence (P20936 181-272 limits assumed): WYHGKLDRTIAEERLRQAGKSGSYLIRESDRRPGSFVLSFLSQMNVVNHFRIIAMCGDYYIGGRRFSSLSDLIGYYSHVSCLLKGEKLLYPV
# YES1 SH2 domain = target: T7, YES1 SH2 domain (Homo sapiens, UniProt P07947); test: FP saturation binding assay; settings: high-confidence ErbB interactions
# T7 construct: 6X His; thioredoxin; made in house; host or cells: BL21(DE3)pLysS E. coli
# In short: (§1)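 Rhodamine-labeled peptides (10 nM final) were titrated with 12 SH2 domain concentrations (0.002–10 µM) in 20 mM HEPES, 100 mM KCl, 0.1% Tween-20, 5 mM DTT, pH 7.8. After 20 min at room temperature in the dark, FP (ex 530/em 555 nm) was read. KDs came from nonlinear least-squares fits.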
# GRB7 SH2 domain = GRB7 SH2 domain (Homo sapiens, UniProt Q14451); test: FP saturation binding assay; settings: KD for GRB7, FP saturation assay
# RASA1-N SH2 domain [6] = target: T6, RASA1-N SH2 domain; test: FP competition assay; assay type: binding; parameters: 6X His; thioredoxin; made in house; host or cells: E. coli BL21(DE3)pLysS; settings: RASA1N; labeled peptide ErbB2pY1196; Fig. 3 graph A; read-out: Ki (obs)
# Protocol: Unlabeled phosphopeptides were synthesized with some modifications to the previously described protocol. […] Unlabeled competitor peptides were prepared at 11 serial 1∶3 dilutions in assay buffer; one control with no unlabeled competitor peptides was also included with each experimental set. The fluorescent peptide, protein, and unlabeled peptide mixtures were allowed to incubate for a minimum of 20 minutes in 384-well plates and polarization signals were measured using the Analyst GT multimode reader as previously described above. Inhibition curves were constructed by four-parameter log-logistic regression using the “drc” package in R with the parameters for maximum and minimum fluorescence fixed according to Z’ factor positive and negative control values. IC50 values were estimated from these fits under a one-site competition binding model and Ki calculated according to the equation developed by.
# SRC SH2 domain = target: T8, SRC SH2 domain (Homo sapiens, UniProt P12931); test: FP saturation binding assay; settings: protein SRC, high-confidence ErbB interactions, mean of replicate hits
# T8 construct: between the c-Src SH2 domain and ErbB1 in our FP assay; 6X His; thioredoxin; made in house; host or cells: E. coli BL21(DE3)pLysS
# In short: as §1
# PLCG1-C SH2 domain = target: T9, PLCG1-C SH2 domain (Homo sapiens, UniProt P19174); test: biochemical; assay type: binding; settings: protein PLCG1-C; high-confidence ErbB interactions; mean of replicate hits
# T9 construct: The 6X His-tagged SH2 domain proteins used in the assay, PLCG1-C, SHC4, VAV2; thioredoxin; made in house; host or cells: E. coli BL21(DE3)pLysS
# T9 sequence (P19174 668-756 limits assumed): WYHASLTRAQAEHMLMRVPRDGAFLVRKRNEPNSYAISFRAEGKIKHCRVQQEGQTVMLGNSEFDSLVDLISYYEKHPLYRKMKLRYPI
# GRAP2 SH2 domain = target: T10, GRAP2 SH2 domain (Homo sapiens, UniProt O75791); test: FP saturation binding assay
# T10 sequence (O75791 58-149 limits assumed): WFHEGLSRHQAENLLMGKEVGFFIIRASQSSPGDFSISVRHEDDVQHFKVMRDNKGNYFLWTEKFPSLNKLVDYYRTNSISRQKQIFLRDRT
# PIK3R1-N SH2 domain = target: T11, PIK3R1-N SH2 domain (Homo sapiens, UniProt P27986); test: biochemical; assay type: binding; settings: protein PIK3R1-N; high-confidence ErbB interactions; mean of replicate hits
# T11 construct: thioredoxin; made in house; host or cells: E. coli BL21(DE3)pLysS
# SH2D2A SH2 domain = SH2D2A SH2 domain (Homo sapiens, UniProt Q9NP31); test: FP saturation binding assay
# PIK3R3-N SH2 domain = target: T12, PIK3R3-N SH2 domain (Homo sapiens, UniProt Q92569); test: FP saturation binding assay; settings: protein PIK3R3-N; high-confidence ErbB interactions; mean of replicate hits
# T12 construct: 6X His; thioredoxin; made in house; host or cells: E. coli BL21(DE3)pLysS
# In short: as §1
# PTK6 SH2 domain = target: T13, PTK6 SH2 domain (Homo sapiens, UniProt Q13882); test: FP saturation binding assay; settings: protein PTK6; high-confidence ErbB interactions; mean of replicate hits
# T13 construct: from the PTK6 SH2 domain; 6X His; thioredoxin; made in house; host or cells: E. coli BL21(DE3)pLysS
# In short: as §1
# [7] = target: T14, PIK3R3-NC tandem SH2 domains (Homo sapiens, UniProt Q92569); test: FP saturation binding assay; settings: protein PIK3R3-NC; high-confidence ErbB interactions; mean of replicate hits
# T14 construct: the tandem protein was included in our analysis with all internal amino acids linking the domains; 6X His; thioredoxin; made in house; host or cells: E. coli BL21(DE3)pLysS
# In short: as §1
# Chain of PIK3R2-NC tandem SH2 domains (O00459 330-716 limits assumed): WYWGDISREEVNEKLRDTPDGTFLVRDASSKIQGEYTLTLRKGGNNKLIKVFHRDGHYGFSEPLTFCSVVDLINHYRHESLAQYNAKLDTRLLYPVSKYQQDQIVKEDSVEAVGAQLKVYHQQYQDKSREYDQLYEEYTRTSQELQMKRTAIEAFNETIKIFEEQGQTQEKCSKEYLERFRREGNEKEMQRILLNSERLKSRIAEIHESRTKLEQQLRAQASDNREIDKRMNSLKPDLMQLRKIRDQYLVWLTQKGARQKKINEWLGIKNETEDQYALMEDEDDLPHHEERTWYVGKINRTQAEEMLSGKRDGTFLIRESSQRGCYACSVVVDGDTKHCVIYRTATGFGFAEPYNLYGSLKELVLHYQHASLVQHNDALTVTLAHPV
# T8 sequence (P12931 151-248 limits assumed): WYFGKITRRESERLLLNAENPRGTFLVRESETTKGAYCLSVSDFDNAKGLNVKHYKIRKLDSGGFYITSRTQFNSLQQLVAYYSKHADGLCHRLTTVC
# T7 sequence (P07947 158-255 limits assumed): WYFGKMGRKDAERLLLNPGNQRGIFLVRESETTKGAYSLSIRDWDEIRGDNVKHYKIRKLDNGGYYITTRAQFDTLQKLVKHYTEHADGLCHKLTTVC
# T13 sequence (Q13882 78-170 limits assumed): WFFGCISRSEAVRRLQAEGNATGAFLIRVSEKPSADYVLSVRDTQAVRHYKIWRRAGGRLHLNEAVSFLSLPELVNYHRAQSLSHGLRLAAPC
# T11 sequence (P27986 333-428 limits assumed): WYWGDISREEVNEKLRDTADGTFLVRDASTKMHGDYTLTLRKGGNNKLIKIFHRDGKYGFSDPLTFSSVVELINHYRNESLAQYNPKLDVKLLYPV
# Chain of NCK2 SH2 domain (O43639 285-380 limits assumed): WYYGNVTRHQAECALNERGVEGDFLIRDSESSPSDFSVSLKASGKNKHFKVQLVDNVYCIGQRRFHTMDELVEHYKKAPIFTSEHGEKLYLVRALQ
# Chain of SH2D2A SH2 domain (Q9NP31 95-186 limits assumed): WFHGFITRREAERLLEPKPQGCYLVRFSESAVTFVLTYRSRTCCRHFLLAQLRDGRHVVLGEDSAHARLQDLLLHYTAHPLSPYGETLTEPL
# Chain of GRB7 SH2 domain (Q14451 431-527 limits assumed): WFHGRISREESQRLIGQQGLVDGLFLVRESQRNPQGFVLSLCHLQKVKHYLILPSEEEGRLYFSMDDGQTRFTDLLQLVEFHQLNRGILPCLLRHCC
structure (smiles),measurement,setting,value
CC[C@H](C)[C@H](NC(=O)[C@H](Cc1c[nH]c2ccccc12)NC(=O)[C@H](CC(C)C)NC(=O)CNC(=O)[C@H](CCCCN)NC(=O)[C@H](Cc1ccc(OP(=O)(O)O)cc1)NC(=O)[C@@H](NC(=O)[C@@H](NC(=O)CNC(=O)[C@@H](N)Cc1ccccc1)[C@@H](C)O)C(C)C)C(=O)N1CCC[C@H]1C(=O)N[C@@H](CCC(=O)O)C(=O)N[C@@H](CC(=O)O)C(=O)O [ErbB1 pY727] (HELM PEPTIDE1{F.G.T.V.[O=C([C@H](Cc1ccc(OP(=O)(O)O)cc1)N[*:1])[*:2]].K.G.L.W.I.P.E.D}$$$$V2.0),Kd,[1],11.5 µM
same,Kd,[2],3.15 µM
same,Kd,SH2D1A SH2 domain,2.71 µM
same,KD range of recruitment of SH2D1A (SHD1A [sic]),SH2D1A SH2 domain; FP saturation assay,in the nM KD range
same,Kd,SH2D1B SH2 domain,0.24 µM
same,KD range of recruitment of SH2D1B,SH2D1B SH2 domain; FP saturation assay,in the nM KD range
CC(C)C[C@H](NC(=O)[C@H](Cc1ccc(OP(=O)(O)O)cc1)NC(=O)[C@H](CCC(=O)O)NC(=O)[C@@H]1CCCN1C(=O)[C@H](CC(N)=O)NC(=O)[C@@H](N)CCC(=O)O)C(=O)N[C@H](C(=O)N1CCC[C@H]1C(=O)N[C@@H](CCC(N)=O)C(=O)NCC(=O)NCC(=O)N[C@@H](C)C(=O)N[C@@H](CC(=O)O)C(=O)O)[C@@H](C)O [ErbB2 1196 13-mer],Kd,NCK2 SH2 domain,3.72 µM
CC(C)C[C@H](NC(=O)[C@H](CC(N)=O)NC(=O)[C@H](CC(=O)O)NC(=O)[C@@H](N)Cc1ccccc1)C(=O)N[C@@H](Cc1ccc(OP(=O)(O)O)cc1)C(=O)N[C@@H](Cc1ccc(O)cc1)C(=O)N[C@@H](Cc1c[nH]c2ccccc12)C(=O)N[C@@H](CC(=O)O)C(=O)N[C@@H](CCC(N)=O)C(=O)N[C@@H](CC(=O)O)C(=O)N1CCC[C@H]1C(=O)N1CCC[C@H]1C(=O)N[C@@H](CCC(=O)O)C(=O)N[C@@H](CC(=O)O)C(=O)O [ErbB2 1221 13-mer] (HELM PEPTIDE1{F.D.N.L.[O=C([C@H](Cc1ccc(OP(=O)(O)O)cc1)N[*:1])[*:2]].Y.W.D.Q.D.P.P.E.D}$$$$V2.0),Kd,[3],11.2 µM
same,Kd,SHC1-PTB domain,1.98 µM
same,Kd,[4],2.27 µM
same,Kd,RASA1-N SH2 domain [5],1.12 µM
same,Kd,"YES1 SH2 domain; Protein YES1, FP saturation binding, mean over replicate hits",2.41 µM
CSCC[C@H](NC(=O)[C@H](Cc1ccc(O)cc1)NC(=O)[C@H](CCC(=O)O)NC(=O)[C@H](Cc1ccc(OP(=O)(O)O)cc1)NC(=O)[C@H](CC(=O)O)NC(=O)[C@H](CCC(=O)O)NC(=O)[C@H](CC(=O)O)NC(=O)[C@@H]1CCCN1)C(=O)N[C@@H](CC(N)=O)C(=O)N[C@@H](CCCNC(=N)N)C(=O)N[C@@H](CCC(N)=O)C(=O)N[C@@H](CCCNC(=N)N)C(=O)N[C@@H](CC(=O)O)C(=O)O [ErbB3 pY1260] (HELM PEPTIDE1{P.D.E.D.[O=C([C@H](Cc1ccc(OP(=O)(O)O)cc1)N[*:1])[*:2]].E.Y.M.N.R.Q.R.D}$$$$V2.0),Kd,GRB7 SH2 domain,≤ 0.1 µM
same,Ki,RASA1-N SH2 domain [6],38.8 µM
same,Ki,"RASA1-N SH2 domain [5]; read-out: Ki ( exp FP), competing peptide, RASA1N, Ki expected from FP, NI = no interaction",> 20 µM
CC[C@H](C)[C@H](NC(=O)[C@@H](N)CCC(=O)O)C(=O)NCC(=O)N[C@@H](Cc1c[nH]cn1)C(=O)N[C@@H](CO)C(=O)N1CCC[C@H]1C(=O)N1CCC[C@H]1C(=O)N1CCC[C@H]1C(=O)N[C@@H](C)C(=O)N[C@@H](Cc1ccc(OP(=O)(O)O)cc1)C(=O)N[C@H](C(=O)N1CCC[C@H]1C(=O)N[C@@H](CCSC)C(=O)N[C@@H](CO)C(=O)NCC(=O)N[C@@H](CC(N)=O)C(=O)N[C@@H](CCC(N)=O)C(=O)N[C@@H](CC(=O)O)C(=O)O)[C@@H](C)O [ErbB4 1056 18-mer] (HELM PEPTIDE1{E.I.G.H.S.P.P.P.A.[O=C([C@H](Cc1ccc(OP(=O)(O)O)cc1)N[*:1])[*:2]].T.P.M.S.G.N.Q.D}$$$$V2.0),Kd,SRC SH2 domain; FP,9.47 µM
CC(C)C[C@H](NC(=O)[C@H](Cc1ccc(O)cc1)NC(=O)[C@H](CC(C)C)NC(=O)[C@@H]1CCCN1C(=O)[C@H](CCC(=O)O)NC(=O)[C@H](CC(N)=O)NC(=O)[C@@H](NC(=O)[C@H](Cc1ccc(OP(=O)(O)O)cc1)NC(=O)[C@H](CCC(=O)O)NC(=O)[C@H](CC(=O)O)NC(=O)[C@H](CCC(=O)O)NC(=O)[C@H](C)NC(=O)[C@H](CCCCN)NC(=O)[C@@H]1CCCN1C(=O)[C@@H]1CCCN1C(=O)CNC(=O)[C@@H](N)CC(N)=O)C(C)C)C(=O)N[C@@H](CC(=O)O)C(=O)O [ErbB4 1202 18-mer] (HELM PEPTIDE1{N.G.P.P.K.A.E.D.E.[O=C([C@H](Cc1ccc(OP(=O)(O)O)cc1)N[*:1])[*:2]].V.N.E.P.L.Y.L.D}$$$$V2.0),Kd,PLCG1-C SH2 domain,1.92 µM
same,Kd,GRAP2 SH2 domain,2.29 µM
same,Kd,PIK3R1-N SH2 domain,5.39 µM
same,Kd,[3],1.84 µM
same,Kd,SH2D2A SH2 domain,6 µM
same,Kd,PIK3R3-N SH2 domain,2.41 µM
same,Kd,PTK6 SH2 domain,2.04 µM
same,Kd,[7],1.21 µM
same,Kd,SRC SH2 domain,2.3 µM
same,Kd,"YES1 SH2 domain; protein YES1, mean of replicate hits",8.4 µM
